Experimental data published in the NIST ThermoML archive (doi:10.1021/acs.jced.7b00241).
± gives the expanded uncertainty stated by the source.

Conditions: Liquid; for mass density: 298.15 K, 101.33 kPa, Vibrating tube method; for Normal boiling temperature: Ebulliometric method (Recirculating still)

Row | mass density [kg/m3] | Normal boiling temperature [°C] | SMILES
1 | 866.2 ± 0.2 | 116.8 ± 0.2 | CC(=O)OCC(C)C [2-methylpropyl ethanoate]
2 | 1095.5 ± 0.2 | 190.70 ± 0.2 | C[S+](C)[O-] [dimethyl sulfoxide]
3 | 798 ± 0.2 | 107.83 ± 0.2 | CC(C)CO [2-methyl-1-propanol]
